Test results from patent US20220289794A1, “SYNTHETIC ANTIMICROBIAL PEPTIDES” (priority 2019, published 2022).
≈ marks a conversion by molar mass, not a printed value. Like-named read-outs stand apart in the source and are kept apart here. Non-standard residues stand in square brackets, D forms with d. Residues, ends and D or L forms follow the SMILES beside them. Dip = N[C@H](C(=O)O)C(c1ccccc1)c1ccccc1

Columns and labels:
[1] = tested on: P. aeruginosa (ATCC 10145); experiment: Broad-spectrum activity against Gram-Negative bacteria (MIC); type: cell-based; details: Table 16, Gram-negative panel
[2] = tested on: Pseudomonas aeruginosa (ATCC 27883)
[3] = tested on: Enterococcus faecium ATCC 700221; details: E. faecium ATCC 700221
[4] = tested on: P. aeruginosa (ATCC BAA-1744); experiment: Broad-spectrum activity against Gram-Negative bacteria (MIC); type: cell-based; details: Table 16, Gram-negative panel
[5] = tested on: B. subtilis (ATCC-6633); experiment: Broad-spectrum activity against Gram-Positive bacteria (MIC); type: cell-based; parameters: unit not given here
[6] = tested on: Streptococcus pneumoniae ATCC 51938; details: S. pneumoniae ATCC 51938
[7] = tested on: Klebsiella pneumoniae ATCC 13883; details: Table 16, Gram-negative panel
[8] = tested on: Klebsiella pneumoniae (ATCC BAA-1705); details: Table 16, Gram-negative panel
[9] = tested on: Methicillin-resistant Staphylococcus aureus MRSA (ATCC BAA-1556)
[10] = tested on: S. aureus ATCC 29213
[11] = tested on: B. cereus (ATCC-13061); experiment: Broad-spectrum activity against Gram-Positive bacteria (MIC); type: cell-based; parameters: unit not given here
[12] = tested on: A. baumannii (ATCC BAA-1605); experiment: Broad-spectrum activity against Gram-Negative bacteria (MIC); type: cell-based; details: Table 16, Gram-negative panel
[13] = tested on: Enterococcus faecium ATCC 27270; details: E. faecium ATCC 27270
[14] = tested on: E. coli (ATCC BAA-2452); experiment: Broad-spectrum activity against Gram-Negative bacteria (MIC); type: cell-based; details: Table 16, Gram-negative panel
[15] = tested on: Enterococcus faecalis ATCC 29212; details: E. faecalis ATCC 29212
[16] = tested on: Enterococcus faecalis ATCC 51575; details: E. faecalis ATCC 51575
[17] = tested on: Streptococcus pneumoniae ATCC 49619; details: S. pneumoniae ATCC 49619
[18] = tested on: Escherichia coli (ATCC 25922)
[19] = tested on: human red blood cells; parameters: unit not given beside the values

## c[arg-arg-arg-arg-dip-dip-dip] [IFX-067]
[1]
  MIC P. aeruginosa (ATCC 10145): 50 µg/mL
[2]; P. aeruginosa ATCC 27883
  MIC P. aeruginosa ATCC 27883: 12.5 µg/mL
[3]
  Broad-spectrum activity E. faecium (ATCC 700221): 3.1
[4]
  MIC P. aeruginosa (ATCC BAA-1744): 25 µg/mL
[5]
  Broad-spectrum activity B. subtilis (ATCC-6633): 1.5
[6]
  Broad-spectrum activity S. pneumoniae (ATCC 51938): 12.5
[7]
  MIC K. pneumonia (ATCC 13883): > 50 µg/mL
[8]
  MIC K. pneumonia (ATCC BAA-1705): 25 µg/mL
[9]; MRSA ATCC BAA-1556
  MIC MRSA ATCC BAA-1556: 1.5 µg/mL
[10]; S. aureus ATCC 29213
  MIC S. aureus ATCC 29213: 3.1 µg/mL
[11]
  Broad-spectrum activity B. cereus (ATCC-13061): 3.1
[12]
  MIC A. baumannii (ATCC BAA-1605): 12.5 µg/mL
[13]
  Broad-spectrum activity E. faecium (ATCC 27270): 3.1
[14]
  MIC E. coli (ATCC BAA-2452): 12.5 µg/mL
[15]
  Broad-spectrum activity E. faecalis (ATCC 29212): 6.2
[16]
  Broad-spectrum activity E. faecalis (ATCC 51575): 6.2
[17]
  Broad-spectrum activity S. pneumoniae (ATCC 49619): 25
[18]; E. coli ATCC 25922
  MIC E. coli ATCC 25922: 6.2 µg/mL

## N=C(N)NCCC[C@@H]1NC(=O)[C@H](CCCNC(=N)N)NC(=O)[C@H](C(c2ccccc2)c2ccccc2)NC(=O)[C@H](C(c2ccccc2)c2ccccc2)NC(=O)[C@H](CCCNC(=N)N)NC(=O)[C@H](CCCNC(=N)N)NC(=O)[C@H](C(c2ccccc2)c2ccccc2)NC1=O [IFX-017, c[Arg-Arg-Dip-Dip-Arg-Arg-Dip]] (cyclo(R[Dip]RR[Dip][Dip]R))
[1]
  MIC P. aeruginosa (ATCC 10145): 25 µg/mL (≈ 19.3 µM)
[2]; ATCC 27883
  MIC P. aeruginosa ATCC 27883: >100 µg/mL
[3]
  Broad-spectrum activity E. faecium (ATCC 700221): 1.5
[4]
  MIC P. aeruginosa (ATCC BAA-1744): 25 µg/mL (≈ 19.3 µM)
[5]
  Broad-spectrum activity B. subtilis (ATCC-6633): 1.5
[6]
  Broad-spectrum activity S. pneumoniae (ATCC 51938): 12.5
[7]
  MIC K. pneumonia (ATCC 13883): 50 µg/mL (≈ 38.6 µM)
[8]
  MIC K. pneumonia (ATCC BAA-1705): 25 µg/mL (≈ 19.3 µM)
[19]
  HC50: 290
[9]; ATCC BAA-1556
  MIC MRSA ATCC BAA-1556: 12.5 µg/mL (≈ 9.66 µM)
[10]; ATCC 29213
  MIC S. aureus ATCC 29213: 6.2 µg/mL (≈ 4.79 µM)
[11]
  Broad-spectrum activity B. cereus (ATCC-13061): 6.2
[12]
  MIC A. baumannii (ATCC BAA-1605): 12.5 µg/mL (≈ 9.66 µM)
[13]
  Broad-spectrum activity E. faecium (ATCC 27270): 3.1
[14]
  MIC E. coli (ATCC BAA-2452): 12.5 µg/mL (≈ 9.66 µM)
[15]
  Broad-spectrum activity E. faecalis (ATCC 29212): 12.5
[17]
  Broad-spectrum activity S. pneumoniae (ATCC 49619): 50
[18]; ATCC 25922
  MIC E. coli ATCC 25922: >100 µg/mL

## c[Arg-Arg-arg-Arg-Dip-Trp-Dip] [IFX-092]
[1]
  MIC P. aeruginosa (ATCC 10145): 25 µg/mL
[2]; P. aeruginosa ATCC 27883
  MIC P. aeruginosa ATCC 27883: 12.5 µg/mL
[3]
  Broad-spectrum activity E. faecium (ATCC 700221): 12.5
[4]
  MIC P. aeruginosa (ATCC BAA-1744): 25 µg/mL
[5]
  Broad-spectrum activity B. subtilis (ATCC-6633): 1.5
[6]
  Broad-spectrum activity S. pneumoniae (ATCC 51938): 25
[7]
  MIC K. pneumonia (ATCC 13883): 50 µg/mL
[8]
  MIC K. pneumonia (ATCC BAA-1705): 25 µg/mL
[9]; MRSA ATCC BAA-1556
  MIC MRSA ATCC BAA-1556: 3.1 µg/mL
[10]; S. aureus ATCC 29213
  MIC S. aureus ATCC 29213: 3.1 µg/mL
[11]
  Broad-spectrum activity B. cereus (ATCC-13061): 6.2
[12]
  MIC A. baumannii (ATCC BAA-1605): 12.5 µg/mL
[13]
  Broad-spectrum activity E. faecium (ATCC 27270): 6.2
[14]
  MIC E. coli (ATCC BAA-2452): 12.5 µg/mL
[15]
  Broad-spectrum activity E. faecalis (ATCC 29212): 12.5
[16]
  Broad-spectrum activity E. faecalis (ATCC 51575): 12.5
[17]
  Broad-spectrum activity S. pneumoniae (ATCC 49619): 50
[18]; E. coli ATCC 25922
  MIC E. coli ATCC 25922: 25 µg/mL

## c[arg-arg-Arg-Arg-naI-Trp-naI] [IFX-136]
[1]
  MIC P. aeruginosa (ATCC 10145): 50 µg/mL
[2]; P. aeruginosa ATCC 27883
  MIC P. aeruginosa ATCC 27883: 32 µg/mL
[3]
  Broad-spectrum activity E. faecium (ATCC 700221): 3.1
[4]
  MIC P. aeruginosa (ATCC BAA-1744): 25 µg/mL
[5]
  Broad-spectrum activity B. subtilis (ATCC-6633): 1.5
[6]
  Broad-spectrum activity S. pneumoniae (ATCC 51938): 12.5
[7]
  MIC K. pneumonia (ATCC 13883): 50 µg/mL
[8]
  MIC K. pneumonia (ATCC BAA-1705): 25 µg/mL
[9]; MRSA ATCC BAA-1556
  MIC MRSA ATCC BAA-1556: 3.1 µg/mL
[10]; S. aureus ATCC 29213
  MIC S. aureus ATCC 29213: 1.5 µg/mL
[11]
  Broad-spectrum activity B. cereus (ATCC-13061): 3.1
[12]
  MIC A. baumannii (ATCC BAA-1605): 12.5 µg/mL
[13]
  Broad-spectrum activity E. faecium (ATCC 27270): 3.1
[14]
  MIC E. coli (ATCC BAA-2452): 12.5 µg/mL
[15]
  Broad-spectrum activity E. faecalis (ATCC 29212): 6.2
[16]
  Broad-spectrum activity E. faecalis (ATCC 51575): 6.2
[17]
  Broad-spectrum activity S. pneumoniae (ATCC 49619): 25
[18]; E. coli ATCC 25922
  MIC E. coli ATCC 25922: 16 µg/mL

## c[arg-arg-arg-arg-NaI-trp-NaI] [IFX-141]
[1]
  MIC P. aeruginosa (ATCC 10145): 25 µg/mL
[2]; P. aeruginosa ATCC 27883
  MIC P. aeruginosa ATCC 27883: 32 µg/mL
[3]
  Broad-spectrum activity E. faecium (ATCC 700221): 6.2
[4]
  MIC P. aeruginosa (ATCC BAA-1744): 25 µg/mL
[5]
  Broad-spectrum activity B. subtilis (ATCC-6633): 1.5
[6]
  Broad-spectrum activity S. pneumoniae (ATCC 51938): 12.5
[7]
  MIC K. pneumonia (ATCC 13883): 50 µg/mL
[8]
  MIC K. pneumonia (ATCC BAA-1705): > 50 µg/mL
[9]; MRSA ATCC BAA-1556
  MIC MRSA ATCC BAA-1556: 6.2 µg/mL
[10]; S. aureus ATCC 29213
  MIC S. aureus ATCC 29213: 3.1 µg/mL
[11]
  Broad-spectrum activity B. cereus (ATCC-13061): 3.1
[12]
  MIC A. baumannii (ATCC BAA-1605): 12.5 µg/mL
[13]
  Broad-spectrum activity E. faecium (ATCC 27270): 6.2
[14]
  MIC E. coli (ATCC BAA-2452): 25 µg/mL
[15]
  Broad-spectrum activity E. faecalis (ATCC 29212): 6.2
[16]
  Broad-spectrum activity E. faecalis (ATCC 51575): 12.5
[17]
  Broad-spectrum activity S. pneumoniae (ATCC 49619): 50
[18]; E. coli ATCC 25922
  MIC E. coli ATCC 25922: 32 µg/mL
